The test has as its system 817829-284-R-J1-PDC complex spheroids, viability. Briefly: Anticancer human tumor 817829-284-R-J1-PDC patient-derived colon adenocarcinoma cell line growth inhibition [GQUAD]. The conditions noted are these: for viability, T/C: stronger effect = lower value. The essentials:
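Viability of tumor cells grown as complex spheroids with endothelial and stromal cells, exposed to drug combinations. Top concentration at or near clinical Cmax (else 10 microM), diluted in half-log increments.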

The mark [1] stands for this setting: curve of first compound, second compound 0.0316 µM.
[2] abbreviates: curve of first compound, second compound 0.1 µM.
Where [3] appears, read: curve of first compound, second compound 0.316 µM.
Setting [4] is: curve of first compound, second compound 1 µM.
[5] abbreviates: curve of first compound, second compound 3.16 µM.
Setting [6] is: curve of first compound, second compound 10 µM.
The mark [7] stands for this setting: second compound 0.0316 µM, first compound 0.0316 µM.
The mark [8] stands for this setting: second compound 0.0316 µM, first compound 0.1 µM.
The mark [9] stands for this setting: second compound 0.0316 µM, first compound 0.316 µM.
Setting [10] is: second compound 0.0316 µM, first compound 1 µM.
Where [11] appears, read: second compound 0.0316 µM, first compound 3.16 µM.
Where [12] appears, read: second compound 0.0316 µM, first compound 10 µM.
Where [13] appears, read: second compound 0.1 µM, first compound 0.0316 µM.
[14] abbreviates: second compound 0.1 µM, first compound 0.1 µM.
Setting [15] is: second compound 0.1 µM, first compound 0.316 µM.
The mark [16] stands for this setting: second compound 0.1 µM, first compound 1 µM.
[17] abbreviates: second compound 0.1 µM, first compound 3.16 µM.
[18] abbreviates: second compound 0.1 µM, first compound 10 µM.
[19] abbreviates: second compound 0.316 µM, first compound 0.0316 µM.
The mark [20] stands for this setting: second compound 0.316 µM, first compound 0.1 µM.
Setting [21] is: second compound 0.316 µM, first compound 0.316 µM.
Setting [22] is: second compound 0.316 µM, first compound 1 µM.
[23] abbreviates: second compound 0.316 µM, first compound 3.16 µM.
Where [24] appears, read: second compound 0.316 µM, first compound 10 µM.
Where [25] appears, read: second compound 1 µM, first compound 0.0316 µM.
[26] abbreviates: second compound 1 µM, first compound 0.1 µM.
[27] abbreviates: second compound 1 µM, first compound 0.316 µM.
Setting [28] is: second compound 1 µM, first compound 1 µM.
Where [29] appears, read: second compound 1 µM, first compound 3.16 µM.
[30] abbreviates: second compound 1 µM, first compound 10 µM.
The mark [31] stands for this setting: second compound 3.16 µM, first compound 0.0316 µM.
The mark [32] stands for this setting: second compound 3.16 µM, first compound 0.1 µM.
Where [33] appears, read: second compound 3.16 µM, first compound 0.316 µM.
Setting [34] is: second compound 3.16 µM, first compound 1 µM.
The mark [35] stands for this setting: second compound 3.16 µM, first compound 3.16 µM.
Where [36] appears, read: second compound 3.16 µM, first compound 10 µM.
Setting [37] is: second compound 10 µM, first compound 0.0316 µM.
[38] abbreviates: second compound 10 µM, first compound 0.1 µM.
Where [39] appears, read: second compound 10 µM, first compound 0.316 µM.
Where [40] appears, read: second compound 10 µM, first compound 1 µM.
Setting [41] is: second compound 10 µM, first compound 3.16 µM.
[42] abbreviates: second compound 10 µM, first compound 10 µM.

The text below walks through data of PubChem BioAssay AID2060503 (Molecular Pharmacology Branch, DTP, NCI, 2025).

Where “and” joins values, the source holds several entries; their conditions need not be identical. Equal values may be shown once.
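Further: spheroids exposed to agents for 7 days before readout.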
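Wherever viability, T/C is given: percent viability relative to DMSO vehicle control taken as 100%.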

As for `Nc1ccn(C2OC(CO)C(O)C2(F)F)c(=O)n1` (stereo not given), the viability, T/C reads like this: (compound 0.0316 µM) 24.6% and 9.45% and 15.3%; (compound 0.1 µM) 5.55% and 8% and 4.56%; (compound 0.316 µM) 7.44% and 8.2% and 6.55%; (compound 1 µM) 5.74% and 7.67% and 5.48%; (compound 3.16 µM) 6.14% and 6.82% and 5.88%; (compound 10 µM) 3.68% and 3.93% and 3.72%. Also, for the setting “curve of compound”, the IC50 was less than 31.6 nM.
Take `O=C(c1cc(Cc2n[nH]c(=O)c3ccccc23)ccc1F)N1CCN(C(=O)C2CC2)CC1` + Cc1[nH]c2ccc(F)cc2c1-c1nc2c3cccnc3c3ncccc3c2[nH]1: the IC50 is greater than 10000 nM under setting [1]; greater than 10000 nM under setting [2]; greater than 10000 nM under setting [3]; greater than 10000 nM under setting [4]; 4160 nM under setting [5]; 1070 nM under setting [6]. Further, the viability, T/C is, setting by setting: under setting [7], 103%; under setting [8], 85.7%; under setting [9], 106%; under setting [10], 87.3%; under setting [11], 97.2%; under setting [12], 63.3%. Moreover, the viability, T/C reads like this: under setting [13], 94%; under setting [14], 109%; under setting [15], 88.3%; under setting [16], 98.8%; under setting [17], 95.5%; under setting [18], 60%. The viability, T/C by setting is: under setting [19], 97.7%; under setting [20], 99.7%; under setting [21], 97.9%; under setting [22], 96.6%; under setting [23], 95.4%; under setting [24], 60.8%. In addition, the viability, T/C was 85.9% under setting [25]; 115% under setting [26]; 97.8% under setting [27]; 97.4% under setting [28]; 89.4% under setting [29]; 62% under setting [30]. Also, the viability, T/C was 98.9% under setting [31]; 98.5% under setting [32]; 97.3% under setting [33]; 93.8% under setting [34]; 54.5% under setting [35]; 35.6% under setting [36]. For the same molecule, the viability, T/C was 45.4% under setting [37]; 46.9% under setting [38]; 56.7% under setting [39]; 54.7% under setting [40]; 37.6% under setting [41]; 20.7% under setting [42].
In the case of `COc1cccc2c1C(=O)c1c(O)c3c(c(O)c1C2=O)CC(O)(C(=O)CO)CC3OC1CC(N)C(O)C(C)O1` (stereo not given), the viability, T/C (compound 0.0316 µM) was 100% and 82% and 106%; the viability, T/C (compound 0.1 µM) was 32.7% and 42.4% and 30.9%; the viability, T/C (compound 0.316 µM) is 30.1% and 39% and 26.2%; the viability, T/C (compound 1 µM) is 9.58% and 10.5% and 8.06%; the viability, T/C (compound 3.16 µM) is 0.57% and 0.58% and 0.61%; the viability, T/C (compound 10 µM) was 0.32% and 0.4% and 0.19%. Moreover, the IC50 (curve of compound) is 84.7 nM and 99.1 nM and 82.1 nM.
For `C=CCn1c(=O)c2cnc(Nc3ccc(N4CCN(C)CC4)cc3)nc2n1-c1cccc(C(C)(C)O)n1`, the viability, T/C runs as follows: (compound 0.0316 µM) 97.1% and 105% and 99.8%; (compound 0.1 µM) 95.4% and 102% and 93.9%; (compound 0.316 µM) 37.1% and 32.5% and 33.8%; (compound 1 µM) 7.67% and 9.37% and 5.53%; (compound 3.16 µM) 6.89% and 6.69% and 4.84%; (compound 10 µM) 5.09% and 5.85% and 4.19%. For the same molecule, the IC50 (curve of compound) was 245 nM and 237 nM and 232 nM.
For `CCc1c2c(nc3ccc(O)cc13)-c1cc3c(c(=O)n1C2)COC(=O)[C@]3(O)CC`, the viability, T/C reads like this: (compound 0.000999 µM) 63% and 65.3% and 63.2%; (compound 0.00316 µM) 26.9% and 40% and 26.7%; (compound 0.00999 µM) 24.7% and 33% and 30.2%; (compound 0.0316 µM) 15.5% and 21.2% and 14.7%; (compound 0.0999 µM) 9.08% and 10.2% and 7.65%; (compound 0.316 µM) 5.27% and 4.91% and 3.96%. For the same molecule, under “curve of compound”, the half-maximal inhibitory concentration (IC50) is 1.58 nM and 2.31 nM and 1.63 nM.
For `Cc1cnc(CNC(=O)c2c(=O)c3ccc(N4CCCN(C)CC4)nc3n3c2sc2ccccc23)cn1`, the viability, T/C is, setting by setting: (compound 0.0316 µM) 90.4% [middle of 12 runs]; (compound 0.1 µM) 39.5% [middle of 12 runs]; (compound 0.316 µM) 29.2% [middle of 12 runs]; (compound 1 µM) 23.6% [middle of 12 runs]; (compound 3.16 µM) 15.9% [middle of 12 runs]; (compound 10 µM) 0.15% [middle of 8 runs]. Under “compound alone, run of 02/20/2024”, the IC50 is 85.8 nM [middle of 11 runs].
`COc1cc(C2c3cc4c(cc3C(OC3OC5COC(C)OC5C(O)C3O)C3COC(=O)C23)OCO4)cc(OC)c1O` (stereo not given): the viability, T/C reads like this: (compound 0.0316 µM) 115% and 98.4% and 91%; (compound 0.1 µM) 62% and 67.7% and 92.4%; (compound 0.316 µM) 29.3% and 26.7% and 34.1%; (compound 1 µM) 26.2% and 28.1% and 42.2%; (compound 3.16 µM) 22.6% and 26.7% and 29.9%; (compound 10 µM) 10.5% and 9.2% and 10.2%. Besides, the IC50 (curve of compound) is 159 nM and 166 nM and 230 nM.
Take `Cc1cccc(N(C)C(=O)C2C(O)CCN2c2nc(C)cc(C(F)(F)F)c2C#N)c1` (stereo not given): the viability, T/C is 94.3% and 102% and 95.3% (compound 0.0316 µM); 97.8% and 81.6% and 93.5% (compound 0.1 µM); 92.5% and 107% and 96.8% (compound 0.316 µM); 88.1% and 99% and 82.6% (compound 1 µM); 92.4% and 88.4% and 96.7% (compound 3.16 µM); 96.7% and 83.4% and 98.1% (compound 10 µM). Also, the IC50 (curve of compound) was greater than 10000 nM.
Regarding `CC1COCCN1c1cc(-c2ccnn2C)c2ccnc(-c3ccn[nH]3)c2n1` (stereo not given), the viability, T/C reads like this: (compound 0.0316 µM) 67.1% and 49.9% and 63.2%; (compound 0.1 µM) 15.9% and 20.1% and 19.1%; (compound 0.316 µM) 8.87% and 9.11% and 9.13%; (compound 1 µM) 5.41% and 7.67% and 7.19%; (compound 3.16 µM) 5.54% and 7.47% and 5.88%; (compound 10 µM) 4.28% and 5.96% and 5.46%. In addition, under “curve of compound”, the IC50 is 46.4 nM and < 31.6 nM and 44.4 nM.
As to `O=C(NO)c1cnc(N2CCN(S(=O)(=O)c3ccc4ccccc4c3)CC2)nc1` + Cc1[nH]c2ccc(F)cc2c1-c1nc2c3cccnc3c3ncccc3c2[nH]1, the 50% inhibitory concentration (IC50) under setting [1] came to 166 nM; the IC50 under setting [2] came to 189 nM; the half-inhibitory concentration (IC50) under setting [3] amounted to 195 nM; the IC50 under setting [4] came out at 186 nM; the IC50 under setting [5] was less than 31.6 nM; the 50% inhibitory concentration (IC50) under setting [6] was less than 31.6 nM. For the same molecule, the viability, T/C was 97% under setting [7]; 88.9% under setting [8]; 0.76% under setting [9]; 0.18% under setting [10]; 0.1% under setting [11]; 0.14% under setting [12]. Also, the viability, T/C was 101% under setting [13]; 120% under setting [14]; 1.55% under setting [15]; 0.16% under setting [16]; 0.08% under setting [17]; 0.16% under setting [18]. In addition, the viability, T/C is 101% under setting [19]; 128% under setting [20]; 3.53% under setting [21]; 0.12% under setting [22]; 0.08% under setting [23]; 0.15% under setting [24]. The viability, T/C is 118% under setting [25]; 106% under setting [26]; 1.91% under setting [27]; 0.1% under setting [28]; 0.08% under setting [29]; 0.14% under setting [30]. Further, the viability, T/C was 9.69% under setting [31]; 13.6% under setting [32]; 0.27% under setting [33]; 0.1% under setting [34]; 0.08% under setting [35]; 0.13% under setting [36]. The viability, T/C under setting [37] is 5.27%; the viability, T/C under setting [38] is 7.46%; the viability, T/C under setting [39] was 0.18%; the viability, T/C under setting [40] is 0.12%; the viability, T/C under setting [41] is 0.17%; the viability, T/C under setting [42] is 0.15%.

The viability, T/C is the ratio of treated to control. What is called IC50 is the concentration that gives 50% inhibition.
